pIC50: −log10 of the molar value.
Columns and labels:
[1] = molecular target: T1, Tyrosine-protein kinase Fgr (Homo sapiens, UniProt P09769); assay: Inhibition of FGR (unknown origin)
Target sequence in this assay (P09769 whole entry): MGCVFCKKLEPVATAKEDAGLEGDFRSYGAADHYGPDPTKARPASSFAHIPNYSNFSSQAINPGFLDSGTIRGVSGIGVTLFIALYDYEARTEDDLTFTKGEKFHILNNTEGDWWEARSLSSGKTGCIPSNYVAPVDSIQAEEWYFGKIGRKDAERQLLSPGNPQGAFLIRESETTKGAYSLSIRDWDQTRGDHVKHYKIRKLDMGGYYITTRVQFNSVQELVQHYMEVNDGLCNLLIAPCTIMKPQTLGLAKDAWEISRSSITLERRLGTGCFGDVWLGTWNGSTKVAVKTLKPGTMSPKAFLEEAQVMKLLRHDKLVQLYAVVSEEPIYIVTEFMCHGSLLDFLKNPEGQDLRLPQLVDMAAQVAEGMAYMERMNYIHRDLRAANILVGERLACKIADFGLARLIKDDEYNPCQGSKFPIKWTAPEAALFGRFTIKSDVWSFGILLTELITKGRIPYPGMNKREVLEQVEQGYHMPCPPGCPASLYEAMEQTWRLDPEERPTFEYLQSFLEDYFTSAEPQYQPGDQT

Salmonella typhimurium = assay: Genotoxicity in Salmonella typhimurium TA100 by Ames test in absence of S9 fraction; format: toxicity, organism-based; conditions: salmonella enterica subsp. enterica serovar typhimurium
[2] = molecular target: Ribosomal protein S6 kinase alpha-2 (Homo sapiens) (UniProt Q15349); assay: Inhibition of Rsk3 (unknown origin) at 1 uM
[3] = molecular target: Non-receptor tyrosine-protein kinase TYK2 (Homo sapiens) (UniProt P29597); assay: Inhibition of TYK2 (unknown origin) at 1 uM
[4] = molecular target: Focal adhesion kinase 1 (Homo sapiens) (UniProt Q05397); assay: Inhibition of FAK (unknown origin) at 1 uM
Focal adhesion kinase 1 (Homo sapiens), sequence (Q05397 2-1052 limits assumed): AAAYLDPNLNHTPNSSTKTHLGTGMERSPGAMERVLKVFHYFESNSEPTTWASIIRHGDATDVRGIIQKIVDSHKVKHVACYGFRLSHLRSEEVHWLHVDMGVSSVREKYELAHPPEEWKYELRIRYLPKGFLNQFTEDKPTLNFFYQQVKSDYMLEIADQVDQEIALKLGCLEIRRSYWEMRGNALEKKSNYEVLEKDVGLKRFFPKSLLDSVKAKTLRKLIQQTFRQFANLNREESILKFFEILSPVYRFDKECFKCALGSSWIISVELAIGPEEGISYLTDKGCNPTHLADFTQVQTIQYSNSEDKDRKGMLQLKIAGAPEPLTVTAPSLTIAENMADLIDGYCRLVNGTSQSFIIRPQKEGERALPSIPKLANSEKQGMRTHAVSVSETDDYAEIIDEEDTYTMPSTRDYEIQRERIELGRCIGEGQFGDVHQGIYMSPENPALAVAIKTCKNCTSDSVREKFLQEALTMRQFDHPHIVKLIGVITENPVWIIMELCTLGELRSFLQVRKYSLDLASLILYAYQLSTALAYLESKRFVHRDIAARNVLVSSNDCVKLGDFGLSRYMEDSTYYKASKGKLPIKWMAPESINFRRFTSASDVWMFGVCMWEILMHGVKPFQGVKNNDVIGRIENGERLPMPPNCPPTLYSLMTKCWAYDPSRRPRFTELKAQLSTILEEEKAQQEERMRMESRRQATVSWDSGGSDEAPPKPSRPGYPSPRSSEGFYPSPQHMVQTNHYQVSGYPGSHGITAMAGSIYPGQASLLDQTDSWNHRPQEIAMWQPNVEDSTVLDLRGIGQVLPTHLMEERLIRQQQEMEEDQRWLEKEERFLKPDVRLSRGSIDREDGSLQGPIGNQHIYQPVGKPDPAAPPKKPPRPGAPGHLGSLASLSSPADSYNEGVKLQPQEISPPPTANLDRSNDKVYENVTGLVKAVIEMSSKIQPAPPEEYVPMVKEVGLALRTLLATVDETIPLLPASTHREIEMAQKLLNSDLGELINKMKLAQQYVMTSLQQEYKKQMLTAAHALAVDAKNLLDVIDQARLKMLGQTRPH

[5] = molecular target: 5'-AMP-activated protein kinase catalytic subunit alpha-1 (Homo sapiens) (UniProt Q13131); assay: Inhibition of PRKAA1 (unknown origin) at 1 uM
[6] = molecular target: Tyrosine-protein kinase Srms (Homo sapiens) (UniProt Q9H3Y6); assay: Inhibition of Srm (unknown origin) at 1 uM
[7] = molecular target: CDK2/Cyclin A2 (Homo sapiens) (UniProt P24941+P20248); assay: Inhibition of CDK2/cyclinA (unknown origin) at 1 uM; format: protein-complex assay
[8] = molecular target: Tyrosine-protein kinase Fyn (Homo sapiens) (UniProt P06241); assay: Inhibition of Fyn (unknown origin) at 1 uM
[9] = molecular target: Vascular endothelial growth factor receptor 3 (Homo sapiens) (UniProt P35916); assay: Inhibition of Flt4 (unknown origin) at 1 uM
[10] = molecular target: Tyrosine-protein kinase Lck (Homo sapiens) (UniProt P06239); assay: Inhibition of LCK (unknown origin) at 1 uM
[11] = molecular target: Tyrosine-protein kinase SYK (Homo sapiens) (UniProt P43405); assay: Inhibition of Syk (unknown origin) at 1 uM
[12] = molecular target: G protein-coupled receptor kinase 3 (Homo sapiens) (UniProt P35626); assay: Inhibition of GRK3 (unknown origin) at 1 uM
[13] = molecular target: Macrophage colony-stimulating factor 1 receptor (Homo sapiens) (UniProt P07333); assay: Inhibition of CSF1R (unknown origin) at 1 uM
Macrophage colony-stimulating factor 1 receptor (Homo sapiens), sequence (P07333 whole entry): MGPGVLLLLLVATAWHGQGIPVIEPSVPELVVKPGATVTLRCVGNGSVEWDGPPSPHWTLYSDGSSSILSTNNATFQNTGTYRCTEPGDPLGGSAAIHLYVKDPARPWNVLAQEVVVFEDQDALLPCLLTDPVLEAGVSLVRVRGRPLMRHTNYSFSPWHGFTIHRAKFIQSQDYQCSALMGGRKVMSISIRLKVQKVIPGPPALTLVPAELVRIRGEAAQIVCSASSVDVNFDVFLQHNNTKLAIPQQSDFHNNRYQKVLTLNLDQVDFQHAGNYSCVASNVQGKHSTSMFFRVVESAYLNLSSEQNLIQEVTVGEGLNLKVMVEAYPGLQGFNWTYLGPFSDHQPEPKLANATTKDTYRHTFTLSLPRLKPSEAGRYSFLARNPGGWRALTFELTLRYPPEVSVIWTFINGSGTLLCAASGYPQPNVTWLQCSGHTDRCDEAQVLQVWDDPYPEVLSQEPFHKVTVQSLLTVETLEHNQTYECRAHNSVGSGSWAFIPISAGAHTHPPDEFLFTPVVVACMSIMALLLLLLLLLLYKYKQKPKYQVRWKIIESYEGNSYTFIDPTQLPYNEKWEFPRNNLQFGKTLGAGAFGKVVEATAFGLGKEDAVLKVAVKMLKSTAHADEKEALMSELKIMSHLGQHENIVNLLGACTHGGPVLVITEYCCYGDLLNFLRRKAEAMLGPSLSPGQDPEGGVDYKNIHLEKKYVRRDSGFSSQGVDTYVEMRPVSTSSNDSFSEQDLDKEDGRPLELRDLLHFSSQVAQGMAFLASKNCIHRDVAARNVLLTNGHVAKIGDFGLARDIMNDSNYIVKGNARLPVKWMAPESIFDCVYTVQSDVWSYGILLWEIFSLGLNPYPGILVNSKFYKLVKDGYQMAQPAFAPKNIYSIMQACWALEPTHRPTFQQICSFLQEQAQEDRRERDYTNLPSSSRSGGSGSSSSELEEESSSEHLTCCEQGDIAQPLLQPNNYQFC

[14] = molecular target: Serine/threonine-protein kinase pim-1 (Homo sapiens) (UniProt P11309); assay: Inhibition of PIM1 (unknown origin) at 1 uM
[15] = molecular target: Cyclin-dependent kinase 1/cyclin B1 (Homo sapiens) (UniProt P06493+P14635); assay: Inhibition of CDK1/cyclinB (unknown origin) at 1 uM; format: protein-complex assay
Liver microsome [16] = assay: Intrinsic clearance in human liver microsomes at 1 uM by LC-MS/MS analysis in presence of NADPH; format: ADME
[17] = molecular target: Mitogen-activated protein kinase 12 (Homo sapiens) (UniProt P53778); assay: Inhibition of p38 gamma (unknown origin) at 1 uM
[18] = molecular target: MAP kinase-interacting serine/threonine-protein kinase 2 (Homo sapiens) (UniProt Q9HBH9); assay: Inhibition of MKNK2 (unknown origin) at 1 uM
MAP kinase-interacting serine/threonine-protein kinase 2 (Homo sapiens), sequence (Q9HBH9 whole entry, looked up): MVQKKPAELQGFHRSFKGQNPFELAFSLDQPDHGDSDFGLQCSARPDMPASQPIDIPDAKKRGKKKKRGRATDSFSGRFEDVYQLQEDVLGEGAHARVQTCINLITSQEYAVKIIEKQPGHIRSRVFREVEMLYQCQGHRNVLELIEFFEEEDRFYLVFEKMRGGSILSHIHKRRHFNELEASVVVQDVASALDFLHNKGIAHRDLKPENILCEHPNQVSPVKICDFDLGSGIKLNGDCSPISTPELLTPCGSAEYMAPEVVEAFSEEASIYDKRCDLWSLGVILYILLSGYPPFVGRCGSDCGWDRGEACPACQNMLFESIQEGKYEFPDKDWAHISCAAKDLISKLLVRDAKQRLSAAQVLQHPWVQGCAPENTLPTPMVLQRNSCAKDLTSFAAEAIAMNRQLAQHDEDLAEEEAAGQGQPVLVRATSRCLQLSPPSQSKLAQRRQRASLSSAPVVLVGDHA

[19] = molecular target: Receptor tyrosine-protein kinase erbB-4 (Homo sapiens) (UniProt Q15303); assay: Inhibition of ErbB4 (unknown origin) at 1 uM
[20] = molecular target: Leucine-rich repeat serine/threonine-protein kinase 2 (Homo sapiens) (UniProt Q5S007); assay: Inhibition of LRRK2 (unknown origin) at 1 uM
[21] = molecular target: G protein-coupled receptor kinase 5 (Homo sapiens) (UniProt P34947); assay: Inhibition of GRK5 (unknown origin) at 1 uM
[22] = molecular target: Ribosomal protein S6 kinase beta-1 (Homo sapiens) (UniProt P23443); assay: Inhibition of p70S6K (unknown origin) at 1 uM
[23] = molecular target: Phosphorylase b kinase gamma catalytic chain, skeletal muscle/heart isoform (Homo sapiens) (UniProt Q16816); assay: Inhibition of PhK gamma1 (unknown origin) at 1 uM
[24] = molecular target: Epidermal growth factor receptor (Homo sapiens) (UniProt P00533); assay: Inhibition of EGFR (unknown origin) at 1 uM
[25] = molecular target: Ephrin type-B receptor 1 (Homo sapiens) (UniProt P54762); assay: Inhibition of EphB1 (unknown origin) at 1 uM
[26] = molecular target: Serine/threonine-protein kinase 33 (Homo sapiens) (UniProt Q9BYT3); assay: Inhibition of STK33 (unknown origin) at 1 uM
[27] = Oral bioavailability in rat at 5 mg/kg by LC-MS/MS analysis; format: ADME, organism-based; conditions: in vivo
[28] = molecular target: Dual specificity mitogen-activated protein kinase kinase 6 (Homo sapiens) (UniProt P52564); assay: Inhibition of MKK6 (unknown origin) at 1 uM
[29] = molecular target: Proto-oncogene tyrosine-protein kinase receptor Ret (Homo sapiens) (UniProt P07949); assay: Inhibition of Ret (unknown origin) at 1 uM
[30] = molecular target: SRSF protein kinase 2 (Homo sapiens) (UniProt P78362); assay: Inhibition of SRPK2 (unknown origin) at 1 uM
[31] = molecular target: Dual specificity tyrosine-phosphorylation-regulated kinase 4 (Homo sapiens) (UniProt Q9NR20); assay: Inhibition of DYRK4 (unknown origin) at 1 uM
[32] = molecular target: Serine/threonine-protein kinase MARK1 (Homo sapiens) (UniProt Q9P0L2); assay: Inhibition of MARK1 (unknown origin) at 1 uM
Homo sapiens = species on record: Homo sapiens; assay: Inhibition of PKA (unknown origin) at 1 uM
[33] = molecular target: Mitogen-activated protein kinase 8 (Homo sapiens) (UniProt P45983); assay: Inhibition of JNK1 alpha1 (unknown origin) at 1 uM
Liver microsome [34] = assay: Intrinsic clearance in human liver microsomes at 1 uM by LC-MS/MS analysis in absence of NADPH; format: ADME
[35] = molecular target: Homeodomain-interacting protein kinase 2 (Homo sapiens) (UniProt Q9H2X6); assay: Inhibition of HIPK2 (unknown origin) at 1 uM
[36] = molecular target: T1, Tyrosine-protein kinase Fgr; assay: Inhibition of FGR (unknown origin) at 1 uM
[37] = molecular target: Glycogen synthase kinase-3 beta (Homo sapiens) (UniProt P49841); assay: Inhibition of GSK3 beta (unknown origin) at 1 uM
Glycogen synthase kinase-3 beta (Homo sapiens), sequence (P49841 whole entry, looked up): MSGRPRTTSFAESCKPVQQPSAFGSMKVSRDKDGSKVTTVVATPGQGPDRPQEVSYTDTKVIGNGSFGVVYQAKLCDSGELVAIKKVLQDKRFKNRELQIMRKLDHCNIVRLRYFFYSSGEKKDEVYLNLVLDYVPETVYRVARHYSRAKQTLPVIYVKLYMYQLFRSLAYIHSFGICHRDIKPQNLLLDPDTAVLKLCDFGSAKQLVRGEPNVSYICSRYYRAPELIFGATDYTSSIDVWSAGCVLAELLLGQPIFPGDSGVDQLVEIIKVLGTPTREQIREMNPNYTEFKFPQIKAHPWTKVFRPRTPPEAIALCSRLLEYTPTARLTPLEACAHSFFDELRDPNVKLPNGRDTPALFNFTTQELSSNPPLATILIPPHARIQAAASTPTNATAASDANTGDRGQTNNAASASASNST

[38] = molecular target: CDK9/cyclin T1 (Homo sapiens) (UniProt O60563+P50750); assay: Inhibition of CDK9/cyclinT1 (unknown origin) at 1 uM; format: protein-complex assay
[39] = molecular target: Phosphatidylinositol 4,5-bisphosphate 3-kinase catalytic subunit gamma isoform (Homo sapiens) (UniProt P48736); assay: Inhibition of PI3K-G (unknown origin) at 1 uM
[40] = molecular target: Testis-specific serine/threonine-protein kinase 1 (Homo sapiens) (UniProt Q9BXA7); assay: Inhibition of TSSK1 (unknown origin) at 1 uM
[41] = molecular target: Mitogen-activated protein kinase kinase kinase 2 (Homo sapiens) (UniProt Q9Y2U5); assay: Inhibition of MEKK2 (unknown origin) at 1 uM
Rattus norvegicus = assay: Clearance in rat at 1 mg/kg, iv by LC-MS/MS analysis; format: ADME, organism-based; conditions: in vivo
[42] = molecular target: Rho-associated protein kinase 1 (Homo sapiens) (UniProt Q13464); assay: Inhibition of ROCK1 (unknown origin) at 1 uM
Rho-associated protein kinase 1 (Homo sapiens), sequence (Q13464 2-1354 limits assumed): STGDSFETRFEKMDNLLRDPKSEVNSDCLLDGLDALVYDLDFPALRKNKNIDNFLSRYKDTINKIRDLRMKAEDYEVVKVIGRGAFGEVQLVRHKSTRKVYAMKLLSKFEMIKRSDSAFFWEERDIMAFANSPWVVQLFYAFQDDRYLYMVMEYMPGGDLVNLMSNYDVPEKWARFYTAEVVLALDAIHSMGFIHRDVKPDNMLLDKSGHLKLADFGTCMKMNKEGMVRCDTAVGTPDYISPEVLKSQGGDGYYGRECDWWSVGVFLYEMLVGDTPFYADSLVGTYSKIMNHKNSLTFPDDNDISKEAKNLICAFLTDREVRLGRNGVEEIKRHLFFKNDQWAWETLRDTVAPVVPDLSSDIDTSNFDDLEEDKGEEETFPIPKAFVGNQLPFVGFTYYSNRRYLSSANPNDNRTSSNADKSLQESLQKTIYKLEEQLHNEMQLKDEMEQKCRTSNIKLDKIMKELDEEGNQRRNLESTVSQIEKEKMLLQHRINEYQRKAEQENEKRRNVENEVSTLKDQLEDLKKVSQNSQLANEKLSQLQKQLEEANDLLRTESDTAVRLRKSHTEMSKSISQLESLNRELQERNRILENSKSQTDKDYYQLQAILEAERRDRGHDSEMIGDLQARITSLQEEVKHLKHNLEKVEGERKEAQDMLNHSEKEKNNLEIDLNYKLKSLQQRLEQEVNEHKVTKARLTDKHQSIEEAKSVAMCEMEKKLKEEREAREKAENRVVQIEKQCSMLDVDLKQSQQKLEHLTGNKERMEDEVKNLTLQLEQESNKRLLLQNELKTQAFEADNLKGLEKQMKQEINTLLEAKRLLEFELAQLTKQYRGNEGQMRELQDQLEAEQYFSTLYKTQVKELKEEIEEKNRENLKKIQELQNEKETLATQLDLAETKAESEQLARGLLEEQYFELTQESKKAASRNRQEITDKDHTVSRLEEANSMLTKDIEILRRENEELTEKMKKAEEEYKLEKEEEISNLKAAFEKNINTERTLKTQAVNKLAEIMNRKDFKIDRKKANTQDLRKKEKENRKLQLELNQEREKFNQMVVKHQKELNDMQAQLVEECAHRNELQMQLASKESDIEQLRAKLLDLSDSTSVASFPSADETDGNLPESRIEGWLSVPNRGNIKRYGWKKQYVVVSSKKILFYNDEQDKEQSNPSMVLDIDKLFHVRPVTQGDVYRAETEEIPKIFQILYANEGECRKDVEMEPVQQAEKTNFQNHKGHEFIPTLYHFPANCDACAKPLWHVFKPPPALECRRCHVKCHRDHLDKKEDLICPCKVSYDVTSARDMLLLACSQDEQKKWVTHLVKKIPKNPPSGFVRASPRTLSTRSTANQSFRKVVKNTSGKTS

**Q.** What does the source list for `Cc1c(-c2cc(Nc3cc4n(n3)CCN(C)C4)c(=O)[nH]n2)ccc(F)c1NC(=O)c1cc2ccccc2s1`?
**A.** pIC50 [1]: 5.99; Activity (Salmonella typhimurium): Non-toxic; inhibition [2]: -0.6%; inhibition [3]: 4.3%; inhibition [4]: 3.6%; inhibition [5]: -2.2%; inhibition [6]: 15.7%; inhibition [7]: -0.9%; inhibition [8]: 7%; inhibition [9]: 2.7%; inhibition [10]: 39.3%; inhibition [11]: 5.6%; inhibition [12]: 0.7%; inhibition [13]: 13%; inhibition [14]: 4.5%; inhibition [15]: 7.3%; CLH (Liver microsome [16]): 6 mL/min/kg; inhibition [17]: 6.5%; inhibition [18]: -0.2%; inhibition [19]: 2.7%; inhibition [20]: 4.7%; inhibition [21]: 3.8%; inhibition [22]: -2.8%; inhibition [23]: -1.2%; inhibition [24]: -5.5%; inhibition [25]: 3.2%; inhibition [26]: 8.3%; bioavailability [27]: 26%; inhibition [28]: 3%; inhibition [29]: 14.9%; inhibition [30]: -2%; inhibition [31]: -1.1%; inhibition [32]: -4.7%; inhibition (Homo sapiens): -4.8%; inhibition [33]: 8.7%; CLH (Liver microsome [34]): 6 mL/min/kg; inhibition [35]: 4.5%; inhibition [36]: 69.8%; inhibition [37]: 11.1%; inhibition [38]: 1%; inhibition [39]: 2.5%; inhibition [40]: 0%; inhibition [41]: 9.2%; clearance (Rattus norvegicus): 5 mL/min/kg; inhibition [42]: -4.8%

From ChEMBL document CHEMBL3745631, “Discovery of highly potent and selective Bruton's tyrosine kinase inhibitors: Pyridazinone analogs with improved metabolic stability” (Bioorg Med Chem Lett, 2016)
